SMILES strings stand for the structures.

The values that follow come from ChEMBL document CHEMBL2073980, “Molecular cloning and characterization of the murine bile salt export pump” (Gene, 2000).

What all share (assay type): functional, cell membranes, Membrane vesicle
Common to all, as to parameters: scale not given: the % may be the effect or the level left

One data set concerns the target T1, Bile salt export pump (Mus musculus, UniProt Q9QY30).
T1 sequence (Q9QY30 whole entry): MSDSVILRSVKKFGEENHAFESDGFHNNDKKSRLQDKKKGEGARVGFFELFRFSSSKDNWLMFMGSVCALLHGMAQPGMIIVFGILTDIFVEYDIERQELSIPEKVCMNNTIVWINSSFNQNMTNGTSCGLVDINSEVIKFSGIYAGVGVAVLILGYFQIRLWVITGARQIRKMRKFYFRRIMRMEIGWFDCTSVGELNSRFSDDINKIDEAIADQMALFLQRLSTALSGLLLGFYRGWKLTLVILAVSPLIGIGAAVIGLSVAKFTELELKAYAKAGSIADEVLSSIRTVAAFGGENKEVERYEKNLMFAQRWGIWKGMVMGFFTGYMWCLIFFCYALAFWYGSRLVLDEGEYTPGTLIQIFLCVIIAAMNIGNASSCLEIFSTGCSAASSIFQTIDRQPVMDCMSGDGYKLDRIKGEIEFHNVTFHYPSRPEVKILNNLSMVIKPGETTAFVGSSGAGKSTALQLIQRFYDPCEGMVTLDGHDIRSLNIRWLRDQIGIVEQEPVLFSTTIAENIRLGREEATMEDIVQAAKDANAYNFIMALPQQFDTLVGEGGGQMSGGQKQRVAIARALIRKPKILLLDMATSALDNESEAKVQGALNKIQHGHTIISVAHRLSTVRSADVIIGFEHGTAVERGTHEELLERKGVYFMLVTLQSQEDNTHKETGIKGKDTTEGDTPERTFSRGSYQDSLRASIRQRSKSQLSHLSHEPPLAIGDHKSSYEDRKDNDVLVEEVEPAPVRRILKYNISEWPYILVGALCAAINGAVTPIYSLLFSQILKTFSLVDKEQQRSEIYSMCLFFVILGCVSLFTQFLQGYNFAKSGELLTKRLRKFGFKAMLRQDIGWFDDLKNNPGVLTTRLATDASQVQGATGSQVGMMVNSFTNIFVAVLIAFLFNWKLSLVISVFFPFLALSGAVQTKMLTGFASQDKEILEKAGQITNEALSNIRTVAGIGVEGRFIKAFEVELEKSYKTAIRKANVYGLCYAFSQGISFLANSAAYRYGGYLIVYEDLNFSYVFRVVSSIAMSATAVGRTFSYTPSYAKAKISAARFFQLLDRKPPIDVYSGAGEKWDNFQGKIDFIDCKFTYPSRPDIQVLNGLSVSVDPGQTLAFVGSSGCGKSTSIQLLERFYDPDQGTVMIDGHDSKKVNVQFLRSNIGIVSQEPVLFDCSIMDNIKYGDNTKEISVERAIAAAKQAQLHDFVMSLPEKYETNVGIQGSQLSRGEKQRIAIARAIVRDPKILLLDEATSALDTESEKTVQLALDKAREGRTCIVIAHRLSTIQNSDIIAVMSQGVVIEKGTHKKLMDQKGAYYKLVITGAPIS
Kind of data set: TP_TRANSPORTER: inhibition of Taurocholate uptake (Taurochorate: 5 uM, UDCA: 50 uM) in membrane vesicles isolated from Bsep-expressing Balb-3T3 cells. Particulars: balb/3t3, 50 µM.

Data set [1] deals with T2, Bsep (bile salt export pump) (Mus musculus, UniProt Q9QY30).
T2 sequence (Q9QY30 whole entry): T1 sequence (Q9QY30 whole entry)
The data set can be described thus: TP_TRANSPORTER: inhibition of Taurocholate uptake (Taurochorate: 5 uM, TDCA: 50 uM) in membrane vesicles isolated from Bsep-expressing Balb-3T3 cells. The following applies: probe taurocholate, read-out: Activity.

For data set [2], the target named is T2, Bsep (bile salt export pump). The data set can be described thus: TP_TRANSPORTER: inhibition of Taurocholate uptake (Taurochorate: 5 uM, TCDC: 50 uM) in membrane vesicles isolated from Bsep-expressing Balb-3T3 cells. Particulars: probe taurocholate, read-out: Activity.
Data set [3] shares this target. Kind of data set: TP_TRANSPORTER: inhibition of Taurocholate uptake (Taurochorate: 5 uM, CDCA: 50 uM) in membrane vesicles isolated from Bsep-expressing Balb-3T3 cells. The following applies: probe taurocholate, read-out: Activity.

Take `C[C@H](CCC(=O)O)[C@H]1CC[C@H]2[C@@H]3[C@@H](O)C[C@@H]4C[C@H](O)CC[C@]4(C)[C@H]3CC[C@]12C` [URSODIOL]: the Activity at Bile salt export pump amounted to 51%. As to `C[C@H](CCC(=O)NCCS(=O)(=O)O)[C@H]1CC[C@H]2[C@@H]3CC[C@@H]4C[C@H](O)CC[C@]4(C)[C@H]3C[C@H](O)[C@]12C` [TAURODEOXYCHOLIC ACID], the activity at 50 µM in data set [1] was determined as 5%. As to `C[C@H](CCC(=O)NCCS(=O)(=O)O)[C@H]1CC[C@H]2[C@@H]3[C@H](O)C[C@@H]4C[C@H](O)CC[C@]4(C)[C@H]3CC[C@]12C` [TAUROCHENODEOXYCHOLATE], the activity at 50 µM in data set [2] came out at 25%. With `C[C@H](CCC(=O)O)[C@H]1CC[C@H]2[C@@H]3[C@H](O)C[C@@H]4C[C@H](O)CC[C@]4(C)[C@H]3CC[C@]12C` [CHENODIOL], the activity at 50 µM in data set [3] worked out at 11%.
